In the supplement of paper PMC10933113:
Counter-ions that a name gives are not always drawn. ± gives the uncertainty stated by the source.

What was measured:
[1] = tested on: cysteine peptide Ac-RFAACAA-COOH; experiment: AC50 of cysteine peptide concentration-response (direction given by sign of efficacy); higher = less potent; details: incubation time: 24 h
[2] = tested on: KeratinoSens (HaCaT ARE-luciferase) cells; experiment: AC50 of Nrf2/ARE luciferase induction; higher = less potent; details: exposure time: 24 h
[3] = tested on: KeratinoSens (HaCaT ARE-luciferase) cells; experiment: cytotoxicity AC50 (CellTiter-Fluor viability); higher = less cytotoxic; details: exposure time: 24 h
[4] = tested on: lysine peptide Ac-RFAAKAA-COOH; experiment: efficacy of lysine peptide change (negative = depletion) (% activity); higher = less depletion; details: incubation time: 24 h
[5] = tested on: cysteine peptide Ac-RFAACAA-COOH; experiment: efficacy of cysteine peptide change (negative = depletion) (% activity); higher = less depletion; details: incubation time: 24 h
[6] = tested on: THP-1; experiment: efficacy of IL-8 induction relative to DMSO (% activity); higher = stronger induction; details: exposure time: 18 h
[7] = tested on: KeratinoSens (HaCaT ARE-luciferase) cells; experiment: efficacy of ARE luciferase induction relative to DMSO (% activity over DMSO); higher = stronger induction; details: exposure time: 24 h
[8] = tested on: THP-1; experiment: AC50 of IL-8 secretion induction; higher = less potent; details: exposure time: 18 h

SMILES	efficacy of lysine peptide change [4]	efficacy of cysteine peptide change [5]	AC50 [1]	AC50 of Nrf2/ARE luciferase induction [2]	cytotoxicity AC50 [3]	efficacy of IL-8 induction [6]	efficacy of ARE luciferase induction [7]	AC50 of IL-8 secretion induction [8]
O=C(CCl)c1ccccc1 [2-Chloroacetophenone]	9.03 ± 16	-94.1 ± 28	49.4 ± 34 µM	35.5 µM	57 ± 12 µM	29.4 ± 7.2	327 ± 92	
c1ccc2sc(SSN3CCOCC3)nc2c1 [2-(Morpholin-4-yldithio)-1,3-benzothiazole]						58 ± 8.8	57.3 ± 29	59.9 µM
O=c1cc(-c2ccccc2)oc2ccc3ccccc3c12 [5,6-Benzoflavone]						98 ± 14	-34.9 ± 4.2	79.4 µM
[CH3][Hg][Cl] [Methyl mercuric (II) chloride]	0	-97.5 ± 1.4	46.5 ± 3.1 µM	3.98 µM	6.57 ± 0.44 µM	73.6 ± 0.91	188 ± 110	
O=[N+]([O-])c1cc(C(F)(F)F)c(Cl)c([N+](=O)[O-])c1Cl [2,4-Dichloro-1,3-dinitro-5-(trifluoromethyl)benzene]	251 ± 34	-83.7 ± 9	23.8 ± 18 µM		26.1 ± 1.8 µM	64.7 ± 13	-10.8 ± 42	17.2 µM
O=C1OC(CCN2CCCCC2)OC1(c1ccccc1)c1ccccc1 (stereo not given) [Pipoxolan hydrochloride]	-49.6 ± 25	-104 ± 2.6	4.43 ± 1.9 µM	20.7 µM	33.5 ± 2.7 µM	0	107 ± 83	
COP(=O)(OC)OC(Br)C(Cl)(Cl)Br (stereo not given) [Naled]	-3.08 ± 5.3	-89.9 ± 2.4	0.93 ± 0.12 µM	31.8 µM	46.5 ± 3.1 µM	8.61 ± 7.6	307 ± 93	
c1ccc2sc(SNC3CCCCC3)nc2c1 [N-Cyclohexyl-2-benzothiazolesulfenamide]	24.6 ± 4.2	-89.9 ± 7	11.1 ± 3.1 µM			101 ± 42	135 ± 140	85.9 µM
C=CC(=O)OCC(COC(=O)C=C)(COC(=O)C=C)COC(=O)C=C [Pentaerythritol tetraacrylate]	-27.5 ± 6	-102 ± 14	3.11 ± 0.76 µM	15.8 µM	25.3 ± 4.1 µM	23.5 ± 10	118 ± 5.8	
CC(C)OC(=S)S [Proxan-sodium]	10.8 ± 20	-94.2 ± 20	73.6 ± 37 µM		37.3 ± 6.7 µM	59.9 ± 7.8	59.5 ± 100	35.9 µM
O=c1ssc(Cl)c1Cl [4,5-Dichloro-3H-1,2-dithiol-3-one]	-36.4 ± 2.7	-102 ± 9.4	1.4 ± 0.39 µM	21.3 µM	37.8 ± 11 µM	24.5 ± 3.5	92.3 ± 9.5	
CN(C)S(=O)(=O)N(SC(F)(Cl)Cl)c1ccccc1 [Dichlofluanid]	62.1 ± 23	-92.1 ± 5	1.96 ± 0.48 µM	15.8 µM	27.2 ± 1.8 µM	19.9 ± 4.2	169 ± 52	

Second part, led by results:

efficacy of lysine peptide change [4]	efficacy of cysteine peptide change [5]	SMILES	AC50 [1]	AC50 of Nrf2/ARE luciferase induction [2]	cytotoxicity AC50 [3]	efficacy of IL-8 induction [6]	efficacy of ARE luciferase induction [7]	AC50 of IL-8 secretion induction [8]
33.7 ± 8.7	-93.3 ± 27	O=C(Nc1ncc([N+](=O)[O-])s1)c1cccs1 [Tenonitrozole]	96.8 ± 13 µM	8.8 µM	12.7 ± 2 µM	6.75 ± 5.9	27.5 ± 48	
23.5 ± 22	-96.9 ± 5.6	[Cl][Bi]([Cl])([c]1ccccc1)([c]1ccccc1)[c]1ccccc1 [Triphenylbismuthine dichloride]	0.85 ± 0.38 µM	14.2 µM	28.2 µM	92.2 ± 110	95.5 ± 39	
-8.95 ± 16	-11.2 ± 4.1	Cc1ccc(O)c2ncccc12 [Tiliquinol]			2.47 ± 0.62 µM	117 ± 19	-35.2 ± 3.8	4.38 µM
121 ± 16	-13.7 ± 2.3	Cc1cc(C2(c3cc(C)c(O)cc3C)OS(=O)(=O)c3ccccc32)c(C)cc1O [p-Xylenol blue]			28.6 ± 6 µM	45.6 ± 8.1	0	52.2 µM
77.4 ± 23	-46 ± 19	O=C(Nc1ccccc1)c1cc(Cl)ccc1O [5-Chlorosalicylanilide]			25.2 ± 2.9 µM	112 ± 7.5	-20.1 ± 52	35.5 µM
50.4 ± 6.8	0	CCCOc1ccc2[nH]c(NC(=O)OC)nc2c1 [Oxibendazole]			2.73 ± 0.38 µM	36.3 ± 9.3	30.2 ± 9.6	27.7 µM
-10.9 ± 3	-82.7 ± 14	CNc1ccc(O)cc1 [4-(Methylamino)phenol Sulfate]	0.16 ± 0.06 µM		27.3 ± 3.8 µM	8.27 ± 13	65.8 ± 4.2	46.7 µM
-33.9 ± 4.4	-101 ± 3.8	COc1cccc2c1C(=O)c1c(O)c3c(c(O)c1C2=O)C[C@@](O)(C(=O)CO)C[C@@H]3O[C@H]1C[C@H](N)[C@H](O[C@@H]2CCCCO2)[C@H](C)O1 [Pirarubicin*]	3.01 ± 1.5 µM	20.5 µM	17.9 ± 6.5 µM	21.1 ± 6.6	638 ± 360	
-47.7 ± 5.3	-86.2 ± 6.7	Cc1c2ccccc2c(C)c2c1ccc1ccccc12 [7,12-Dimethylbenzanthracene]	19.4 ± 11 µM	29.6 µM	57 ± 12 µM	129 ± 15	69 ± 29	
33.8 ± 41	0	COC(=O)Nc1nc2cc(Sc3ccccc3)ccc2[nH]1 [Fenbendazole]			3.46 ± 1.9 µM	213 ± 14	46 ± 53	39.8 µM
20.6 ± 4.8	-104 ± 14	C/C=C/C=C/CCCCCCCO [Codlelure]	28.6 ± 15 µM	73.7 µM	44.9 ± 5.2 µM	8.57 ± 7.8	1300 ± 400	
16.7 ± 23	-3.5 ± 6.1	O=C(N/N=C/c1ccccc1O)c1ccncc1 [Salinazid]			4.76 ± 1.3 µM	45.6 ± 14	-34.3 ± 30	20 µM
-94.5 ± 3.8	-98.9 ± 3.5	CCCCCCCCn1sc(Cl)c(Cl)c1=O [4,5-Dichloro-2-octyl-3(2H)-isothiazolone]	0.88 ± 0.21 µM		12.1 ± 0.79 µM	50.1 ± 4.7	-41.3 ± 5.3	11.7 µM
35 ± 23	-113 ± 17	c1ccc(CCNc2nc(-c3ccccc3)cs2)cc1 [Fanetizole]	40 ± 4.6 µM	33.2 µM	41.4 ± 2.8 µM	45.8 ± 14	119 ± 37	
12.2 ± 14	-95.5 ± 18	COc1ccc(C(=O)/C(Br)=C\C(=O)O)cc1 [Cytembena]	79.8 ± 9.2 µM	37.1 µM	57 ± 12 µM	33.2 ± 4.5	417 ± 100	
0	-49.3 ± 1.9	O=[N+]([O-])c1cc(N(CCO)CCO)ccc1NCCO [HC Blue 2]	18.7 ± 3.4 µM			38.4 ± 82	0	66.8 µM
